Measured values taken from ChEMBL document CHEMBL4725235, “Small molecule DTDQ exerts anti-metastatic effects in DU145 human castration-resistant prostate cancer cells via modulations of ERK, JNK, p38 and c-Myc signaling pathways” (Bioorg Med Chem Lett, 2020).
The source made the active and inactive calls. The rule behind the calls is not given here.

How the values were obtained:
PC-3 [1] = experiment: Inhibition of colony formation in human PC-3 cells incubated for 2 weeks with media replacement for every 3 days by crystal violet staining based microscopic analysis; assay type: functional, cell-based; conditions: dose microM 12-24, time 2.0 weeks
DU-145 [2] = experiment: Cytotoxicity against human DU-145 cells assessed as reduction in cell viability at 10 uM incubated for 24 hrs by CCK8 assay relative to control; assay type: functional
DU-145 [3] = experiment: Inhibition of metastasis in human DU-145 cells assessed as reduction in MMP9 mRNA expression at 12 to 24 uM incubated for 48 hrs by qRT-PCR analysis; assay type: functional, cell-based; conditions: dose microM 12-24, time 48.0 hrs
DU-145 [4] = experiment: Cytotoxicity against human DU-145 cells assessed as reduction in cell viability after 24 hrs by CCK8 assay; assay type: functional, cell-based; conditions: DU-145, 24 h
PC-3 [5] = experiment: Modulatory activity of MAPK signaling pathway in human PC-3 cells assessed as EST-1 expression at 12 to 24 uM incubated for 24 hrs by Western blot analysis; assay type: cell-based; conditions: dose microM 12-24, time 24.0 hrs
DU-145 [6] = experiment: Modulatory activity of MAPK signaling pathway in human DU-145 cells assessed as EST-1 expression at 12 to 24 uM incubated for 24 hrs by Western blot analysis; assay type: cell-based; conditions: dose microM 12-24, time 24.0 hrs
PC-3 [7] = experiment: Inhibition of cell migration in human PC-3 cells at 12 to 24 uM incubated for 24 hrs by wound healing assay; assay type: functional, cell-based; conditions: dose microM 12-24, time 24.0 hrs
PC-3 [8] = experiment: Modulatory activity of MAPK signaling pathway in human PC-3 cells assessed as NFkappaB expression at 12 to 24 uM incubated for 24 hrs by Western blot analysis; assay type: cell-based; conditions: dose microM 12-24, time 24.0 hrs
PC-3 [9] = experiment: Inhibition of metastasis in human PC-3 cells assessed as reduction in MMP9 expression at 12 to 24 uM incubated for 48 hrs by Western blot analysis; assay type: functional, cell-based; conditions: dose microM 12-24, time 48.0 hrs
PC-3 [10] = experiment: Inhibition of metastasis in human PC-3 cells assessed as reduction in MMP2 expression at 12 to 24 uM incubated for 48 hrs by Western blot analysis; assay type: functional, cell-based; conditions: dose microM 12-24, time 48.0 hrs
DU-145 [11] = experiment: Modulatory activity of MAPK signaling pathway in human DU-145 cells assessed as reduction in ERK phosphorylation incubated for 24 hrs by Western blot analysis; assay type: cell-based; conditions: filed as modulator, dose microM 12-24, time 24.0 hrs
DU-145 [12] = experiment: Inhibition of metastasis in human DU-145 cells assessed as reduction in MMP2 mRNA expression at 12 to 24 uM incubated for 48 hrs by qRT-PCR analysis; assay type: functional, cell-based; conditions: dose microM 12-24, time 48.0 hrs
DU-145 [13] = experiment: Inhibition of cell migration in human DU-145 cells at 12 to 24 uM incubated for 24 hrs by wound healing assay; assay type: functional, cell-based; conditions: dose microM 12-24, time 24.0 hrs
DU-145 [14] = experiment: Antiinvasive activity against human DU-145 cells assessed as inhibition of cell migration at 12 to 24 uM incubated for 20 hrs by Boyden chamber assay; assay type: functional, cell-based; conditions: dose microM 12-24, time 20.0 hrs
DU-145 [15] = experiment: Inhibition of colony formation in human DU-145 cells at 12 to 24 uM incubated for 2 weeks with media replacement for every 3 days by crystal violet staining based microscopic analysis; assay type: functional, cell-based; conditions: dose microM 12-24, time 2.0 weeks
DU-145 [16] = experiment: Modulatory activity of MAPK signaling pathway in human DU-145 cells assessed as increase in p38 activation at 12 to 24 uM incubated for 24 hrs by Western blot analysis; assay type: cell-based; conditions: filed as modulator, dose microM 12-24, time 24.0 hrs
DU-145 [17] = experiment: Inhibition of metastasis in human DU-145 cells assessed as reduction in MMP9 expression incubated for 48 hrs by Western blot analysis; assay type: functional, cell-based; conditions: dose microM 12-24, time 48.0 hrs
DU-145 [18] = experiment: Modulatory activity of MAPK signaling pathway in human DU-145 cells assessed as reduction in c-MYC expression at 12 to 24 uM incubated for 24 hrs by Western blot analysis; assay type: cell-based; conditions: filed as modulator, dose microM 12-24, time 24.0 hrs
PC-3 [19] = experiment: Cytotoxicity against human PC-3 cells assessed as reduction in cell viability at 40 uM incubated for 24 hrs by CCK8 assay relative to control; assay type: functional
DU-145 [20] = experiment: Modulatory activity of MAPK signaling pathway in human DU-145 cells assessed as increase in JNK activation at 12 to 24 uM incubated for 24 hrs by Western blot analysis; assay type: cell-based; conditions: filed as modulator, dose microM 12-24, time 24.0 hrs
DU-145 [21] = experiment: Inhibition of metastasis in human DU-145 cells assessed as reduction in MMP2 expression incubated for 48 hrs by Western blot analysis; assay type: functional, cell-based; conditions: dose microM 12-24, time 48.0 hrs
DU-145 [22] = experiment: Modulatory activity of MAPK signaling pathway in human DU-145 cells assessed as NFkappaB expression at 12 to 24 uM incubated for 24 hrs by Western blot analysis; assay type: cell-based; conditions: dose microM 12-24, time 24.0 hrs
PC-3 [23] = experiment: Modulatory activity of MAPK signaling pathway in human PC-3 cells assessed as reduction in ERK phosphorylation incubated for 24 hrs by Western blot analysis; assay type: cell-based; conditions: filed as modulator, dose microM 12-24, time 24.0 hrs
PC-3 [24] = experiment: Modulatory activity of MAPK signaling pathway in human PC-3 cells assessed as increase in JNK phosphorylation at 12 to 24 uM incubated for 24 hrs by Western blot analysis; assay type: cell-based; conditions: filed as modulator, dose microM 12-24, time 24.0 hrs
PC-3 [25] = experiment: Modulatory activity of MAPK signaling pathway in human PC-3 cells assessed as reduction in c-MYC expression at 12 to 24 uM incubated for 24 hrs by Western blot analysis; assay type: cell-based; conditions: filed as modulator, dose microM 12-24, time 24.0 hrs
PC-3 [26] = experiment: Modulatory activity of MAPK signaling pathway in human PC-3 cells assessed as increase in p38 phosphorylation at 12 to 24 uM incubated for 24 hrs by Western blot analysis; assay type: cell-based; conditions: dose microM 12-24, time 24.0 hrs
PC-3 [27] = experiment: Modulatory activity of MAPK signaling pathway in human PC-3 cells assessed as beta-catenine expression at 12 to 24 uM incubated for 24 hrs by Western blot analysis; assay type: cell-based; conditions: dose microM 12-24, time 24.0 hrs
DU-145 [28] = experiment: Modulatory activity of MAPK signaling pathway in human DU-145 cells assessed as beta-catenine expression at 12 to 24 uM incubated for 24 hrs by Western blot analysis; assay type: cell-based; conditions: dose microM 12-24, time 24.0 hrs

COc1cc(C2CC(=O)Nc3cc(C)c(C)cc32)cc(OC)c1OC (stereo not drawn)
inhibition (PC-3 [1]): Dose-dependent effect | Activity (DU-145 [2]): 70% | inhibition (DU-145 [3]): Active | IC50 (DU-145 [4]): > 200 µM | Activity (PC-3 [5]): inactive | Activity (DU-145 [6]): inactive | inhibition (PC-3 [7]): Active | Activity (PC-3 [8]): inactive | inhibition (PC-3 [9]): inactive | inhibition (PC-3 [10]): Active | Activity (DU-145 [11]): Dose-dependent effect | inhibition (DU-145 [12]): Active | inhibition (DU-145 [13]): Active | inhibition (DU-145 [14]): Active | inhibition (DU-145 [15]): Active | Activity (DU-145 [16]): Active | inhibition (DU-145 [17]): Dose-dependent effect | Activity (DU-145 [18]): Active | Activity (PC-3 [19]): 20% | Activity (DU-145 [20]): Active | inhibition (DU-145 [21]): Dose-dependent effect | Activity (DU-145 [22]): inactive | Activity (PC-3 [23]): Active | Activity (PC-3 [24]): Active | Activity (PC-3 [25]): Active | Activity (PC-3 [26]): inactive | Activity (PC-3 [27]): inactive | Activity (DU-145 [28]): inactive
